Measurements from paper PMC11702208 (RSC Advances, 2025).
“And” between values parts separate entries of the source, which are not always exact repeats. Identical values can stand only once.

Test system: T-47D cells
Assay: Annexin V-FITC/PI apoptosis assay
Type: cell-based

Compound: CCN(CC)c1ccc(C=NNC(=O)CSc2nc3ccccc3c(=O)n2Cc2ccc(S(N)(=O)=O)cc2)c(O)c1 [Compound 5, 4-((2-((2-(2-(4-(Diethylamino)-2-hydroxybenzylidene)hydrazineyl)-2-oxoethyl)thio)-4-oxoquinazolin-3(4H)-yl)methyl)benzenesulfonamide]
- Apoptosis Early: 9.3% and 9.28%
- Apoptosis Late: 14.8% and 14.75%
- Apoptosis Total: 31.07%
- Necrosis: 7.04%
